Source: patent publication EP1039902B1, “INHIBITORS OF GAP JUNCTION COMMUNICATION” (THE SCRIPPS RESEARCH INSTITUTE, priority 1997, dated 1999)
Entries after “also recorded” stand apart in the source; their conditions may differ.

Key:
[1] = test system: rat glial cell gap junction; assay: Gap junction dye coupling assay (Lucifer yellow dye transfer; microinjection or scrape loading); type: cell-based; conditions: for potency of gap junction inhibition relative to oleamide: comparison in words
Method: (§1) Rat glial cells (Suter et al., 1987) obtained from Dr. Trosko's laboratory were cultured in standard plastic tissue cultureware in Richter's Improved Minimal Essential Medium (Irvine Scientific, Santa Ana, CA), supplemented with 10% fetal calf serum and 50 µg/ml gentamicin sulfate, and incubated in a humidified atmosphere of 95% air/5% CO2 at 37°C. The cells were passaged by trypsinization and used at passages 4-8. BHK (baby hamster kidney) cells that were stably transfected with a β1 connexin cDNA (Kumar et al., 1995) were cultured in DMEM medium supplemented with 5% fetal calf serum and 50 µg/ml gentamicin sulfate, and incubated in a humidified atmosphere of 95% air/5% CO2 at 37° C. In order to induce β1 connexin expression in the BHK cells, 100 µM zinc acetate was added to culture medium for 8-18 hours when the cell culture was about 90% confluent.
(§2) Gap junctional communication in glial cell and BHK/β1 cell cultures was assayed by microinjection of 5% Lucifer yellow CH dye in 0.1 M LiCl solution, and quantitated by determining the number of directly adjacent, neighboring cells that received dye (dye-coupling). Micropipettes were loaded with the dye solution by backfilling. Cells were visualized using a Nikon Diaphot inverted phase contrast/ epifluorescent microscope, and impaled with dye-filled micropipettes using an Eppendorf microinjector (model 5246). Five minutes after dye-injection, the transfer of dye to directly adjacent cells was determined using epifluorescent illumination. For each treatment condition, ten cells were microinjected in each of three dishes, the total number of dye-coupled neighboring cells was calculated and compared to determine the % dye-coupling. For scrape loading measurements, Lucifer yellow CH (0.05% dye in PBS) was loaded intracellularly by cutting or scraping cells in the monolayer with a sharp knife. The dye solution was left in the dish for 90 seconds, then the solution was discarded, and the dish subsequently washed with PBS. The cells were examined for dye transfer with an inverted epifluorescence microscope, and the degree of communication was assessed by determining the extent of Lucifer yellow transfer into contiguous cells.

rat glial cells = assay: Calcium wave propagation (Fluo-3, mechanical stimulation); type: cell-based
Method: Rat glial cells were loaded with 5 µM Fluo-3/AM (Calbiochem) in Hank's balanced salt solution containing 25 mM HEPES buffer (HBSS/HEPES) for 1 hour, at which point the loading buffer was exchanged for new HBSS/HEPES buffer. The cell cultures were then left at room temperature for at least 30 minutes. Mechanical stimulation of a single cell was performed as follows: a glass micropipette (tip diameter of approximately 0.5 µm) was micro-manipulated downward on to a single cell causing a transient deformation of the cell membrane. The calcium image was then examined with an inverted fluorescence microscope, and photographed with a digital fluorescence microscope (excitation = 506 nm, emmision = 526 nm). The degree of calcium wave propagation was quantitated by counting at different time points the number of transmitting cells in one linear direction away from the stimulated cell. Junctional dye transfer rates were simultaneously examined by microinjection of Lucifer yellow CH in the same dishes; the methods for dye transfer assay was described in assay procedures, gap junction dye coupling assays. For calcium wave and dye transfer studies, the drug was preincubated with the glial cells for 10 minutes, and the drug was left in the experimental solution throughout the examination. All measurements were performed at room temperature.

BHK/β1 cells = assay: Gap junction dye transfer between β1 connexin-transfected BHK cells; type: cell-based, baby hamster
Method: as §1, §2

α1 connexin = assay: Immunoblotting of α1 connexin phosphorylation isoforms; type: cell-based, rat; conditions: 50 µM, 4 hours
Method: Plasma membrane fractions containing gap junctions were obtained after hypotonic alkali extraction of the glial cells. The extracted protein was dissolved in 2% SDS and the total protein was determined using the Bio-Rad DC Protein Assay kit (Bio-Rad Corp.). 10 µg of protein was electrophoresed by 10% SDS-PAGE, and subsequently blotted electrophoretically on to Immobilon-P membranes (Millipore Corp.). Gap junction protein was detected using anti-α1 connexin polyclonal rabbit antibodies, and the HRP/Chemiluminescence detection kit (Amersham Corp.) following the manufacturer's instructions.

[2] = result in words, concentration not stated at the place

Compound	inhibition of gap junction-mediated dye transfer [1, 2]	also measured
CCCC/C=C\CCCCCCCC(N)=O [14:1^9, Myristoleamide]	loss of activity	–
CCCCCCCCCCCCCCCCCC(N)=O [18:0, stearamide]	no observable inhibition	inhibition of gap junction-mediated dye transfer ([1]; result in words, concentration not given, listed as octadecanamide): ineffective
CC1(C)[C@@H](O)CC[C@]2(C)[C@H]3C(=O)C=C4[C@@H]5C[C@@](C)(C(=O)O)CC[C@]5(C)CC[C@@]4(C)[C@]3(C)CC[C@@H]12 [18β-GA, 18β-glycyrrhetinic acid, reference compound]	–	block of dye transfer ([1]; 40 µM): completely blocking; potency of gap junction inhibition relative to oleamide [1]: blocked dye transfer at doses comparable to oleamide; calcium wave propagation (rat glial cells; 40 µM, 10 minutes prior to mechanical stimulation): completely blocking; also recorded: did not propagate to any other cells; effect on dye transfer (BHK/β1 cells; concentration not given): inhibitory effects
CCCCCCCC/C=C\CCCCCCCC(=O)OC[C@H](CO)OC(C)=O [(2S)-1-oleoyl-2-acetylglycerol, reference compound]	not inhibitors	–
CCCCCCCC/C=C\CCCCCCCC(=O)CBr [BrCH2, 1-Bromo-10Z-nonadecen-2-one]	substantially less effective	–
COCCCCCCCC/C=C\CCCCCCCC(N)=O [CH2OCH3]	did not effect the gap junction inhibition	–
CCCCCCCC/C=C\CCCCCCC(S)C(N)=O (stereo not shown) [CHSH]	ineffective	–
CCCCCCCC/C=C\CCCCCCCC(=O)CCl [ClCH2]	substantially less effective	–
CCCCCCCC/C=C\CCCCCCCC(=O)N(C)OC [MeONMe]	most potent of the agents examined	–
CCCCCCCC/C=C\CCCCCCCC(=O)NCC(N)=O [N-oleoyl glycinamide]	ineffective	–
CCCCCCCC/C=C\CCCCCCCC(=O)NCC(=O)OCC [N-oleoyl glycine ethyl ester]	effective, albeit slightly less potent, inhibitor	–
CCCCCCCC/C=C\CCCCCCCC(=O)NCC(=O)O [N-oleoyl glycine]	ineffective	–
CCCCCCCC/C=C\CCCCCCCC(=O)N(C)CC(=O)OCC [N-oleoyl sarcosine ethyl ester]	effective inhibitors	–
CCCCCCCC/C=C\CCCCCCCC(=O)N(C)CC(=O)O [N-oleoyl sarcosine]	effective inhibitors	–
CCCCC/C=C\C/C=C\C/C=C\C/C=C\CCCC(N)=O [arachidonamide]	effective inhibitor	potency of gap junction inhibition relative to oleamide [1]: not quite as potent as oleamide
NC(=O)CCCCCCC/C=C\CCCCCCCC(=O)O [carboxylic acid]	–	inhibition of gap junction-mediated dye transfer ([1]; 50 µM): no gap junction inhibition
CCCCCCCCC/C=C\CCCCCCC(N)=O [cis-8-octadecenamide]	–	inhibition of gap junction-mediated dye transfer ([1]; 50 µM): significant inhibitors; potency of gap junction inhibition relative to oleamide [1]: less potent than oleamide at lower doses
CCCCCC/C=C\CCCCCCCCCC(N)=O [cis-11-octadecenamide]	–	inhibition of gap junction-mediated dye transfer ([1]; 50 µM): only slightly affected junctional coupling; inhibition of gap junction-mediated dye transfer ([1]; 100 µM): completely blocked dye transfer
CCCCCCCCC#CCCCCCCCC(N)=O [compound 2, 9-octadecynamide]	potent inhibitor	potency of gap junction inhibition relative to oleamide [1]: only slightly less active than oleamide
CCCCCCCC/C=C\CCCCCCCC(=O)OCC [ethyl oleate]	progressively reduced effectiveness	–

Compound	inhibition of gap junction-mediated dye transfer [1, 2]	also measured
CCCCCCCO [heptanol, reference compound]	–	block of dye transfer ([1]; 3 mM): completely blocking; minimal effective concentration ([1]; Rattus norvegicus, Glial cell, read-out: concentrations required to inhibit junctional communication): 3000 µM; calcium wave propagation (rat glial cells; 3 mM): completely blocking; effect on dye transfer (BHK/β1 cells; concentration not given): inhibitory effects
CCCCC/C=C\C/C=C\CCCCCCCC(N)=O [linoleamide, Linoleamide]	–	potency of gap junction inhibition relative to oleamide [1]: lower than oleamide
CCCCCCCC/C=C\CCCCCCCC(=O)OC [methyl oleate]	progressively reduced effectiveness	–
CCCCCCCC/C=C\CCCCCCCCOC(C)=O [oleyl acetate, Oleyl acetate]	progressively reduced effectiveness	–
CCCCCCCC/C=C\CCCCCCCCO [oleyl alcohol, Oleyl alcohol]	progressively reduced effectiveness	–
CCCCCCCC/C=C\CCCCCCCC(OC)OC [oleyl aldehyde dimethyl acetal, Oleyl aldehyde dimethyl acetal]	inactive	–
CCCCCCCC/C=C\CCCCCCCC(=O)NCCCO [oleyl propanolamide]	comparable properties	–
CCCCCC/C=C\CCCCCCCC(N)=O [palmitoleamide, Palmitoleamide]	potent activity	–
Cc1ccc(C(=O)Nc2ccc(S(=O)(=O)O)c3cc(S(=O)(=O)O)cc(S(=O)(=O)O)c23)cc1NC(=O)c1cccc(NC(=O)Nc2cccc(C(=O)Nc3cc(C(=O)Nc4ccc(S(=O)(=O)O)c5cc(S(=O)(=O)O)cc(S(=O)(=O)O)c45)ccc3C)c2)c1 [suramin, reference compound]	–	gap junction communication ([1]; 200 µM): without affecting gap junction communication; glial calcium wave transmission (rat glial cells; 200 µM): blocked glial calcium wave transmission
NC(=O)CCCCCCC/C=C\CCCCCCCC(N)=O [symmetrical 18:1^9 dicarboxamide]	–	inhibition of gap junction-mediated dye transfer ([1]; 50 µM): no gap junction inhibition
NC(=O)CCCCCCC/C=C\CCCCCCCCO [terminal alcohol, 18-hydroxyoleamide]	–	inhibition of gap junction-mediated dye transfer ([1]; 50 µM): no gap junction inhibition
CCCCCCCC/C=C/CCCCCCCC(N)=O [trans-9-octadecenamide]	ineffective; also recorded: no effect	inhibition of gap junction-mediated dye transfer ([1]; result in words, concentration not given, listed as 18:1^9-trans): no observable inhibition; effect on dye transfer (BHK/β1 cells; 50 µM, 4 hours of treatment): no effect; effect on dye transfer (BHK/β1 cells; concentration not given): no effect; α1 connexin phosphorylation profile (P2 isoform) (α1 connexin): No change
CCCCCCCC/C=C\CCCCCCC(C)(C)C(N)=O [α,α-dimethyl oleamide]	potent inhibitors	–
CCCCCCCC/C=C\CCCCCCC(SC(C)=O)C(N)=O (stereo not drawn) [α-acetylthiooleamide]	effective inhibitors	–
CCCCCCCC/C=C\CCCCCCC(Cl)C(N)=O (stereo not drawn) [α-chlorooleamide]	effective inhibitors	–
CCCCCCCC/C=C\CCCCCCC(O)C(N)=O (stereo not drawn) [α-hydroxy oleamide, 2-hydroxy-9Z-octadecenamide]	effective inhibitors	–
CC/C=C\C/C=C\C/C=C\CCCCCCCC(N)=O [α-linolenamide]	–	inhibition of gap junction-mediated dye transfer ([1]; 50 µM): ineffective
CCCCCCCC/C=C\CCCCCCC(C)C(N)=O (stereo not drawn) [α-methyl oleamide]	potent inhibitors	–
CCCCC/C=C\C/C=C\C/C=C\CCCCC(N)=O [γ-linolenamide]	effective but less potent inhibitor	–
